Measured values from patent US11655239B2 (SHANGHAI INSTITUTE OF MATERIAL MEDICA, CHINESE ACADEMY OF …, priority 2019, dated 2023).

What was measured:
ERK1/2, Akt and p38 = assay: Phosphorylation level of downstream mediators of TGF-β (Western Blot); assay type: cell-based, human; settings: MRC-5, TGF-β1 treatment
Protocol: (§1) 1) Preparation of cell protein samples: the cell culture liquid was discarded, wash was performed once with PBS, and samples were collected by adding 1×SDS-Loading. after the samples were collected, they were placed in a metal bath at 100° C., and the samples were boiled for 10 minutes, and then the samples were stored at 4° C. for waiting for subsequent test.
2) Gel preparation and sample loading: according to the molecular weight of the detected protein, different concentrations of separation gel were selected. after filling the 1× electrophoresis buffer, an equal volume of protein sample 4 μl and protein marker were added on the far left to right in sequence. […]
(§2) 8) Secondary antibodies: the film with the primary antibodies was rewarmed and incubated for about half an hour, and then the primary antibodies were recovered and the film was washed quickly with TBST solution 3 times, 10 minutes each time. […] The dilution ratio of the secondary antibody dedicated for DDR2 was 1:5000; The dilution ratio for the rest of the secondary antibodies were 1:8000, ready for use. […]
In addition, the phosphorylation level of the main downstream mediators of TGF-β was analyzed by Western Blot. […]

PDGFR-β = PDGFR-β (Homo sapiens (Human), UniProt P09619); assay: Enzyme selectivity test (ELISA), PDGFR-β; assay type: biochemical
PDGFR-β, sequence (P09619 33-1106, species assumed): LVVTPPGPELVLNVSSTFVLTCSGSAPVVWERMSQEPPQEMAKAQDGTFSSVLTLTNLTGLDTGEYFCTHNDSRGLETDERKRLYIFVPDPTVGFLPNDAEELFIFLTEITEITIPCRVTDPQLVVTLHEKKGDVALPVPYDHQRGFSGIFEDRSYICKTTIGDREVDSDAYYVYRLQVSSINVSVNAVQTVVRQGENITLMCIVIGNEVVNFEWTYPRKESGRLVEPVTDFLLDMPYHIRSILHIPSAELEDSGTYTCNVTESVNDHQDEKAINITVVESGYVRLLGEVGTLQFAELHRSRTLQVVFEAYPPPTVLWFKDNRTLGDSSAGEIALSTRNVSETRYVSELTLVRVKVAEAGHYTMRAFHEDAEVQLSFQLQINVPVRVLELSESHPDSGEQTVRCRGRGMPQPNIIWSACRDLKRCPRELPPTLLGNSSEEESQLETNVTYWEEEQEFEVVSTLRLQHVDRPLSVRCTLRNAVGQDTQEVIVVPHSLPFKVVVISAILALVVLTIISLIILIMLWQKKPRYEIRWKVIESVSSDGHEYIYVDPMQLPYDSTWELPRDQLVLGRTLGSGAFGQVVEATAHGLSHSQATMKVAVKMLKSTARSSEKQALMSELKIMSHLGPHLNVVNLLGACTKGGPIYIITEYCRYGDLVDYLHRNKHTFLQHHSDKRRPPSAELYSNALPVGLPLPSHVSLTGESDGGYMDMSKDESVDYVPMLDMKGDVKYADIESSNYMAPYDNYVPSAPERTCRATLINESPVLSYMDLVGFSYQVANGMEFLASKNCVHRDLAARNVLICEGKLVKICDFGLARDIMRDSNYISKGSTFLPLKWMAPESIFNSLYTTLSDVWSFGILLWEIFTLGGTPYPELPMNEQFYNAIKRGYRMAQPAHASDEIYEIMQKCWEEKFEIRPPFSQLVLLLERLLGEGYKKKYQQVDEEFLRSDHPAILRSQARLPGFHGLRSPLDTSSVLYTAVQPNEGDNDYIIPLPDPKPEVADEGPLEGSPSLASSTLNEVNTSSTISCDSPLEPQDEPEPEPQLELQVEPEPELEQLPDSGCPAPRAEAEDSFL
Protocol: (§3) 1) Enzyme reaction substrate Poly(Glu, Tyr) 4:1 was diluted to 20 μg/mL with potassium-free PBS (10 mM sodium phosphate buffer, 150 mM NaCl, pH 7.2-7.4), and the microtiter plate was coated with 125 μL/well and placed at 37° C. for 12-16 hours of reaction. The liquid in the well was discard. The plate was washed three times with T-PBS (potassium-free PBS containing 0.1% Tween-20, 200 μL/well), 5 minutes each time. The ELISA plate was dried in an oven at 37° C. for 1 to 2 hours.
(§4) 2) Reaction buffer (50 mM HEPES pH 7.4, 50 mM MgCl2, 0.5 mM MnCl2, 0.2 mM Na3VO4, 1 mM DTT) diluted ATP solution (49 μL) was added to each well, 1 μL of the compound to be tested was added to each well, and then 50 μL of DDR2 kinase domain recombinant protein diluted in the reaction buffer was added to start the reaction. Two control wells without ATP were set in each experiment. The plate placed on a shaker (100 rpm) at 37° C. for 1 hour of reaction. The liquid in the well was discarded and the plate was washed three times with T-PBS.
(§5) 3) Antibody PY99 dilution solution (the antibody was diluted 1:500 with T-PBS containing BSA 5 mg/mL) was added at 100 μL/well, and shaken on a shaker at 37° C. for 0.5 hour of reaction. The liquid in the well was discarded and the plate was washed three times with T-PBS.
(§6) 4) Horseradish peroxidase labeled goat anti-murine secondary antibody dilution solution (the antibody is diluted 1:2000 with T-PBS containing BSA 5 mg/ml) was added at 100 μL/well, and shaken on a shaker at 37° C. for 0.5 hour of reaction. The liquid in the well was discarded and the plate was washed three times with T-PBS.
(§7) 5) 2 mg/ml of OPD color developing solution [diluted with 0.1 M citric acid-sodium citrate buffer (pH=5.4) containing 0.03% H2O2] was added at 100 μL/well and reacted for 1 to 10 minutes at 25° C. in the dark.
(§8) 6) 2M H2SO4 was added at 50 μL/well to stop the reaction, and a tunable wavelength microplate reader VERSAmax was used for reading at a wavelength of 490 nm.
(§9) The IC50 value was obtained by four-parameter regression using the software that came with the microplate reader. […]

KDR = KDR (Homo sapiens (Human), UniProt P35968); assay: Enzyme selectivity test (ELISA), KDR; assay type: biochemical
KDR, sequence (P35968 20-1356, species assumed): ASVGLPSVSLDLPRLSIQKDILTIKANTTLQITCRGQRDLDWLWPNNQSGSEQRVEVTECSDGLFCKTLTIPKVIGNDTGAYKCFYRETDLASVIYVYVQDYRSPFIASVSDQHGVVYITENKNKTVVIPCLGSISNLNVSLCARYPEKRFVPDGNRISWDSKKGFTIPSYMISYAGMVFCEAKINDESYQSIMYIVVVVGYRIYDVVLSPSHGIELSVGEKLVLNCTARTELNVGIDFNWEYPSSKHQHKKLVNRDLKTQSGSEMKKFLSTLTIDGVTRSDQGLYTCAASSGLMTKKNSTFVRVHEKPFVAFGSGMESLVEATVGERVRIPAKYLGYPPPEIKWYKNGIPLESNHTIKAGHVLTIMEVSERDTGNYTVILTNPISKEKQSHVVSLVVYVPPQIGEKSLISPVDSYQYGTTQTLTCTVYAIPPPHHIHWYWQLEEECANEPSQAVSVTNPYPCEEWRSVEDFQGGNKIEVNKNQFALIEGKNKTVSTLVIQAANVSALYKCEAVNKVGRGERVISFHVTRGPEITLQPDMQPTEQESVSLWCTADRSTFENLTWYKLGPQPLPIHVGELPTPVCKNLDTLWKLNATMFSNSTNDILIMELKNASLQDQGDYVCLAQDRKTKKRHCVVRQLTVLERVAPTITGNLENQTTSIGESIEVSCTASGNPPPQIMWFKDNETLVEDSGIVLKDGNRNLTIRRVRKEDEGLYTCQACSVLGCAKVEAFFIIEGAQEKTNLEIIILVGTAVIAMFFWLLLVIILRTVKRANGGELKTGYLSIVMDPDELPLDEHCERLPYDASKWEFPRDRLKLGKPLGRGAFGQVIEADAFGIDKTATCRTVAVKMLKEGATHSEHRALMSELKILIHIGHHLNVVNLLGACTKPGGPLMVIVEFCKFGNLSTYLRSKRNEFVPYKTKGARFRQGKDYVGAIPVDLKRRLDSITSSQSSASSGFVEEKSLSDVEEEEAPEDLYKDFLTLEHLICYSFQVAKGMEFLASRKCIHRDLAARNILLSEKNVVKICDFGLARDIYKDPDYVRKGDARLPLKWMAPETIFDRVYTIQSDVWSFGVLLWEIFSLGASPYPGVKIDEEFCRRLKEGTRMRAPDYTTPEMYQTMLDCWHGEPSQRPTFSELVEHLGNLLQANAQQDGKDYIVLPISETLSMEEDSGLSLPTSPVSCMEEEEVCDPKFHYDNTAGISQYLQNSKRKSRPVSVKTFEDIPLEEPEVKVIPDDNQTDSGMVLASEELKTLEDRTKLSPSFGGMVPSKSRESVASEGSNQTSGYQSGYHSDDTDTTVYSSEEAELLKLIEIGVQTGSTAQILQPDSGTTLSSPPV
Protocol: as §3, §4, §5, §6, §7, §8, §9

[1] = test system: pulmonary fibrosis induced by bleomycin in mice; assay: Hydroxyproline level of the whole lung; assay type: in vivo, mouse; settings: Effect example 5; compared with the BLM control group
Protocol: The change in hydroxyproline was determined by using a hydroxyproline detection kit, the steps are as follows:
1) The wet weights of the lung tissues in different groups were accurately weighed, and the lung tissues were placed in a 20 ml centrifuge tube after weighing.
2) 1 ml of hydrolysate was added to a 20 ml centrifuge tube and the tube was placed in boiling water at a constant temperature for 20 minutes.
3) The pH of the sample was adjusted to 6.0-8.0 with the reagents provided in the kit.
4) The reagents in the centrifuge tube were made up to 10 ml with distilled water, and mixed thoroughly.
5) 5 ml of hydrolysate was taken from the centrifuge tube, an appropriate amount of activated carbon was added, mixed thoroughly, centrifuged at 3500 rpm for 10 minutes in a centrifuge, and 1 ml of upper supernatant layer was taken for subsequent monitoring.
6) Reagents 1, 2, and 3 were added in order, mixed thoroughly, and then placed in a water bath at 60° C. for 15 minutes, then placed at room temperature for 5 minutes, and centrifuged in a centrifuge at 3500 rpm for 10 minutes. […] Distilled water was used as the zero setting and the absorbance value of each sample at 550 nm wavelength was determined.
7) A standard curve was drew based on the absorbance of the standard, and used as a basis to determine the hydroxyproline content of each sample. […]

ErbB4 = ErbB4 (Homo sapiens (Human), UniProt Q15303); assay: Enzyme selectivity test (ELISA), ErbB4; assay type: biochemical
ErbB4, sequence (Q15303 26-1308, species assumed): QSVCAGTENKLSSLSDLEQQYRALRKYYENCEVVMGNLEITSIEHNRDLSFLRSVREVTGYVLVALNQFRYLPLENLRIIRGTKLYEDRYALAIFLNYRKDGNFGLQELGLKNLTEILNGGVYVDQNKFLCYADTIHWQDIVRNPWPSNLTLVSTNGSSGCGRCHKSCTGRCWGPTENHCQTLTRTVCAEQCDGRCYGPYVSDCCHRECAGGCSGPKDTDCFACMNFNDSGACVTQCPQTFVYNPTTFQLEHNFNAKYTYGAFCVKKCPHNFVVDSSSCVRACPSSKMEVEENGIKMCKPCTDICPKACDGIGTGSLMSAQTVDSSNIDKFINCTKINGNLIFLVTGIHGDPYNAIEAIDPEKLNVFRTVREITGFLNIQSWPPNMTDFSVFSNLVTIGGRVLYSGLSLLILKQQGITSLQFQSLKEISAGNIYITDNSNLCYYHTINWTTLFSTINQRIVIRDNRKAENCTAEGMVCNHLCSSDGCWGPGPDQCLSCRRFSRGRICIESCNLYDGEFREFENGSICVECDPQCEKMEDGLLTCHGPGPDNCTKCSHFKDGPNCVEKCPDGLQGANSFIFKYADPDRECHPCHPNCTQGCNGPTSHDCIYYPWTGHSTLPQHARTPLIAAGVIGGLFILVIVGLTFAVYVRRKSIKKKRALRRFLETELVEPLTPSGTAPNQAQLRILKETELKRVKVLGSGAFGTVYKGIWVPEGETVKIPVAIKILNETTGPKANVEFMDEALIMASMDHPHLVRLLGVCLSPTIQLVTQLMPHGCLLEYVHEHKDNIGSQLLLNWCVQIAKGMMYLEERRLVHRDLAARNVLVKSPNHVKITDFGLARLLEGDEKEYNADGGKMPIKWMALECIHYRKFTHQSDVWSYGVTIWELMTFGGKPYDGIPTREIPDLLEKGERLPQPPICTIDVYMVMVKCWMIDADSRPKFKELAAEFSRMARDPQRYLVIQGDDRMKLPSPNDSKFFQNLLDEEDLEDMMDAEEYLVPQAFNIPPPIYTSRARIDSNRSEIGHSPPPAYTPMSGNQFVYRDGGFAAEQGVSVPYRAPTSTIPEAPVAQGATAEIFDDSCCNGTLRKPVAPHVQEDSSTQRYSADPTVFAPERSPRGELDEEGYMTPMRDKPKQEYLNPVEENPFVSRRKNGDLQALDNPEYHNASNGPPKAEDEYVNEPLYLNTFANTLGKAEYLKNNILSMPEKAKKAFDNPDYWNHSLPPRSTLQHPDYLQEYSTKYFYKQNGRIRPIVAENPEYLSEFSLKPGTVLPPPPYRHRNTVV
Protocol: as §3, §4, §5, §6, §7, §8, §9

DDR2 = assay: Phosphorylation level of DDR2 (Western Blot); assay type: cell-based, human; settings: MRC-5, TGF-β1 treatment
Protocol: as §1
2) Gel preparation and sample loading: according to the molecular weight of the detected protein, different concentrations of separation gel were selected. after filling the 1× electrophoresis buffer, an equal volume of protein sample 4 μl and protein marker were added on the far left to right in sequence.
When the sample was in the concentrated gel, the voltage was set to 80 V; when the sample was electrophoresed to the separation gel, the voltage was increased to 120 V until the bromophenol blue was electrophoresed to reach the bottom of the gel, and the electrophoresis ended. […]
as §2

`O=C(Nc1cccc(C(F)(F)F)c1)c1ccc(C2CC2)c(-c2ccc3nc(Nc4cnn(C5CC5)c4)ncc3c2)c1` [Compound S15, 4-cyclopropyl-3-(2-((1-cyclopropyl-1H-pyrazol-4-yl)amino)quinazolin-6-yl)-N-(3-(trifluoromethyl)phenyl)benzamide] was tested, and the “phosphorylation level of downstream ERK1/2, Akt and p38” value (ERK1/2, Akt and p38) was “significantly inhibit the phosphorylation level of downstream ERK1/2, Akt and p38”, the IC50 (PDGFR-β) was over 1000 nM and the IC50 (KDR) was under 10 nM. For the same compound, the “hydroxyproline level of the whole lung” value [1] was “significantly reduce the level of hydroxyproline”, the IC50 (ErbB4) was over 10 nM and the “phosphorylation level of DDR2” value (DDR2) was “effectively inhibit the phosphorylation level of DDR2”.
